The structures appear in SMILES notation. Substitutions are numbered along the chain they refer to.

The term IC50 denotes the concentration that inhibits the measured activity by half. A low value points to greater potency.

Common to all, as to settings: mean ± standard deviation of the mean; 90 minutes reaction
One assay concerns the target T1, IDH1/R132H (Homo sapiens, UniProt O75874, R132H).
T1 construct: His-tag (N); made in house; host or cells: E. coli
Nature of the assay: Biochemical assay for IDH1 R132H mutant enzyme (2HG by RapidFire MS). As to the method:
(§1) IDH1-R132H, IDH1-R132C, IDH2-R172K and IDH2-R140Q mutant enzymes catalyze the conversion of αKG to 2HG. 2HG is analyzed using in-line solid phase extraction and mass spectrometry. This analysis is carried out in a RapidFire® instrument coupled to a 6460 triple quadrupole mass spectrometer (G6460A Agilent).
(§2) IDH1 mutant (R132H and R132C) and IDH2 mutant (R140Q and R172K) proteins containing N-terminal His-tag are expressed in E. coli and purified using nickel affinity chromatography. The enzyme assays are carried out in V-bottom 96 well polypropylene plates containing 100 mM Tris-HCl buffer, 1 mM DTT, 0.005% TRITON™ X-100, 120 mM NaCl. For IDH1 R132H, α-ketoglutarate, NADPH and MnCl2 are included at final concentrations of 300 μM, 2.5 μM and 300 μM respectively. For IDH1 R132C, α-ketoglutarate, NADPH and MnCl2 are included at final concentrations of 100 μM, 10 μM and 100 μM respectively. For IDH2 R172K, α-ketoglutarate, NADPH and MnCl2 are included at final concentrations of 150 μM, 10 μM and 150 μM respectively. For IDH2 R140Q, α-ketoglutarate, NADPH and MnCl2 are included at final concentrations of 3000 μM, 10 μM and 100 μM respectively. Final pH=7.0. Test compound dissolved in DMSO stock is diluted in the reaction mix at a final DMSO concentration of 4%. Compounds are tested in dose-response format. The assay is started by addition of enzyme. Enzymes are used at the following final concentrations: IDH1 R132H, 2 nM; IDH1 R132C, 0.5 nM; IDH2 R172K, 1.2 nM; IDH2 R140Q, 1.2 nM. After 90 minutes the reaction is quenched by adding ACN (50:50) containing 3-hydroxy-1,5-pentanedioic-2,2,3,4,4-d5 acid (5d5-3HG) as an internal standard for mass spectrometry analysis and quantitation of reaction product. 2-Hydroxyglutarate (2HG) in quenched samples is separated using strong anionic exchange column chromatography (Phenomenex Strata-X-A SecurityGuard) and analyzed by mass spectrometry in a 6460 triple quadrupole mass spectrometer (G6460A Agilent). The 2HG signal detected is transformed into an analyte concentration using a calibration curve generated using known 2HG concentrations. […] IC50 values are obtained from the individual % inhibition values at different compound concentrations using a 4-parameter equation. These calculations are carried out using Activity Base (IDBS) or Screener (Genedata) data analysis programs.

The target in a further assay is T2, IDH1/R132C (Homo sapiens, UniProt O75874, R132C).
T2 construct: His-tag (N); made in house; host or cells: E. coli
The assay is described as follows: Biochemical assay for IDH1 R132C mutant enzyme (2HG by RapidFire MS). How it is done:
as §1, §2

The next assay concerns the target T3, IDH2/R140Q (Homo sapiens, UniProt P48735, R140Q).
T3 construct: His-tag (N); made in house; host or cells: E. coli
T3 sequence (P48735 40-452 R140Q): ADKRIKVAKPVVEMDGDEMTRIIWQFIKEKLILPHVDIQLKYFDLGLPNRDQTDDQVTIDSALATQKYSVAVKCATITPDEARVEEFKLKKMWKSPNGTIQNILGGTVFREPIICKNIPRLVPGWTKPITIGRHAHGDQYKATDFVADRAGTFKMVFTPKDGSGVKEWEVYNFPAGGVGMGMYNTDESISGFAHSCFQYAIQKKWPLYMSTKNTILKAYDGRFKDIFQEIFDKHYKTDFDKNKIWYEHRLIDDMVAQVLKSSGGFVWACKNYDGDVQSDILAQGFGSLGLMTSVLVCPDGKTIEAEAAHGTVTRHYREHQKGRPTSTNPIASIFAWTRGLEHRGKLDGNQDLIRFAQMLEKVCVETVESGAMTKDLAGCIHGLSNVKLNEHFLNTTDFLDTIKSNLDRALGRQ
The assay is described as follows: Biochemical assay for IDH2 R140Q mutant enzyme (2HG by RapidFire MS). As to the method:
as §1, §2

The target of another assay is T4, IDH2/R172K (Homo sapiens, UniProt P48735, R172K).
T4 construct: His-tag (N); made in house; host or cells: E. coli
T4 sequence (P48735 40-452 R172K): T3 sequence (P48735 40-452 R140Q) with Q101R, R133K
Nature of the assay: Biochemical assay for IDH2 R172K mutant enzyme (2HG by RapidFire MS). As to the method:
as §1, §2

T1 sequence (O75874 whole entry R132H): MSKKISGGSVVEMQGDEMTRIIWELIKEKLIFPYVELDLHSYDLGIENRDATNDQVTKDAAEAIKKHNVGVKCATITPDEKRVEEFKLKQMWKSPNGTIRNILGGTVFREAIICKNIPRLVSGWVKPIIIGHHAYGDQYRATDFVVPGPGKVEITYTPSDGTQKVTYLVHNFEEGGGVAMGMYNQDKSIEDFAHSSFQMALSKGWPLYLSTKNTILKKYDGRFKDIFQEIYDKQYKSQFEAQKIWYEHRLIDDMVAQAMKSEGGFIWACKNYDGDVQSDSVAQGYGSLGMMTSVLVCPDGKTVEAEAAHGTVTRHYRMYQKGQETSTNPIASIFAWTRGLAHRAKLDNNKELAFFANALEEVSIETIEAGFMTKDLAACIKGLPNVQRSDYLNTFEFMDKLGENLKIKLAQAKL
T2 sequence (O75874 whole entry R132C): as the sequence (O75874 whole entry R132H) above, with H132C counted along it

For the compound `C=CC(=O)N1CCN(Cc2ccc([C@H](C)Nc3ncc4c(n3)N(C)C(=O)OC4)cc2)CC1` [Example 19, 1-Methyl-7-[[(1S)-1-[4-[(4-prop-2-enoylpiperazin-1-yl)methyl]phenyl]ethyl]amino]-4H-pyrimido[4,5-d][1,3]oxazin-2-one], the IC50 against IDH1/R132H is 776 ± 210 nM; on IDH1/R132C, 1580 ± 340 nM; at IDH2/R140Q, over 100000 nM; on IDH2/R172K, 23000 ± 12400 nM.
On to `C=CC(=O)N1CC(N(C)Cc2ccc([C@H](C)Nc3ncc4c(n3)N(CC)C(=O)OC4)cc2)C1` [Example 10, 1-Ethyl-7-[[(1S)-1-[4-[[methyl-(1-prop-2-enoylazetidin-3-yl)amino]methyl]-phenyl]ethyl]amino]-4H-pyrimido[4,5-d][1,3]oxazin-2-one], for which the IC50 against IDH1/R132H was 260 ± 35 nM; on IDH1/R132C it was 309 ± 107 nM; against IDH2/R140Q, over 100000 nM; against IDH2/R172K it was 6610 nM.
On the same counts, the results for `C=CC(=O)N1CC(COc2ccc([C@H](C)Nc3ncc4c(n3)N(C(C)C)C(=O)OC4)cc2)C1` [Example 9, 1-Isopropyl-7-[[(1S)-1-[4-[(1-prop-2-enoylazetidin-3-yl)methoxy]-phenyl]ethyl]amino]-4H-pyrimido[4,5-d][1,3]oxazin-2-one] are 41.7 ± 3.6 nM, 62.9 ± 18.8 nM, 27000 nM and 2090 nM.
Consider `C=CC(=O)N1CCN(Cc2ccc([C@H](C)Nc3ncc4c(n3)N(C(C)C)C(=O)OC4)cc2)CC1` [Example 1, 1-Isopropyl-7-[[(1S)-1-[4-[(4-prop-2-enoylpiperazin-1-yl)methyl]phenyl]ethyl]amino]-4H-pyrimido[4,5-d][1,3]oxazin-2-one], for which the IC50 turned out to be 29.1 ± 10.7 nM at IDH1/R132H, 26.6 ± 10.3 nM at IDH1/R132C, 41800 nM against IDH2/R140Q and 1670 nM on IDH2/R172K.
Turning to `C=CC(=O)N1CCN(Cc2ccc([C@H](C)Nc3ncc4c(n3)N(CC)C(=O)OC4)cc2F)CC1` [Example 16, 1-Ethyl-7-[[(1S)-1-[3-fluoro-4-[(4-prop-2-enoylpiperazin-1-yl)methyl]phenyl]ethyl]amino]-4H-pyrimido[4,5-d][1,3]oxazin-2-one], the IC50 was found to be 116 ± 15 nM on IDH1/R132H, 137 ± 44 nM against IDH1/R132C, 49000 nM at IDH2/R140Q and 4100 nM against IDH2/R172K.
Taken in the same sequence, the figures for `C=CC(=O)N1CCC(N(C)Cc2ccc([C@H](C)Nc3ncc4c(n3)N(CC)C(=O)OC4)cc2)CC1` [Example 12, 1-Ethyl-7-[[(1S)-1-[4-[[methyl-(1-prop-2-enoyl-4-piperidyl)amino]-methyl]phenyl]ethyl]amino]-4H-pyrimido[4,5-d][1,3]oxazin-2-one] were 515 ± 86 nM, 457 ± 229 nM, over 100000 nM and 25300 nM.

Source of the values: patent US10253041B2, “7-phenylethylamino-4H-pyrimido[4,5-d][1,3]oxazin-2-one compounds and their use as mutant IDH1 inhibitors” (Eli Lilly and Company, priority 2015, dated 2019).
